Data set [1] relates to SMN2 minigene mRNA (SMN2-A minigene) in HEK293H cells. The data set is described as follows: SMN2 minigene mRNA splicing RT-qPCR assay in cultured cells. In kind it is cell-based, human. Conditions: Homo sapiens, HEK293-H; concentration increasing full length SMN2 mRNA 1.5-fold relative to vehicle-treated cells; HEK293H cells with SMN2-A minigene, 24 hours, 7-point concentration data; read-out: EC1.5x for production of full length SMN2 mRNA. The essentials:
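Potency reflects the concentration that lifts full-length SMN2 minigene mRNA 1.5-fold above vehicle in stably transfected HEK293H cells after 24 h of treatment. Transcript abundance came from RT-qPCR as (1+E)^−Ct, normalized to GAPDH; endogenous SMN1/SMN2 are not detected.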
On the technique in general: Quantitative PCR measures a nucleic acid by following its amplification.

Data set [2] relates to Smn protein in SMA patient fibroblast cells (GM03813). The data set is described as follows: Smn protein assay in cultured cells (SMN HTRF). In kind it is cell-based, human. To be noted: SMA patient fibroblast cells, 48 hours; for EC1.5x for Smn protein expression: 7-point concentration curve, SMN HTRF, concentration producing 1.5 times Smn protein vs DMSO vehicle control; for maximum fold (Fold) increase of Smn protein: 7-point concentration data, fold relative to vehicle control. In a few lines:
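Smn protein abundance in treated SMA fibroblasts was measured by HTRF after 48 h compound exposure. The reported EC1.5× is the concentration producing 1.5 times vehicle Smn levels.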
(In TR-FRET formats the signal depends on donor and acceptor labels being close together.)

The values that follow come from patent US11753407B2, “Compounds for treating spinal muscular atrophy” (PTC Therapeutics, Inc., priority 2012, dated 2023).

Molecules are shown by their SMILES.

A word on the melting point: it is the temperature of the solid-liquid transition. For the molecule `Cc1cn2cc(-c3cc(=O)n4cc(C5CCN(C)CC5)ccc4n3)cc(C)c2n1` [Compound 614, 2-(2,8-dimethylimidazo[1,2-a]pyridin-6-yl)-7-(1-methylpiperidin-4-yl)-4H-pyrido[1,2-a]pyrimidin-4-one], the melting point lay within 200 to 202 °C. For the same molecule, the EC (1.5-fold increase) in data set [1] is less than 0.1 µM. Also, in data set [2], the “EC1.5x for Smn protein expression” value was “**** (an EC1.5x≤0.3 μM is indicated by four stars (****))” and the “maximum fold (Fold) increase of Smn protein” value (“maximum fold (Fold) increase” for short) was “***** (a fold increase >1.65 is indicated by five stars (*****))”.

As for `COc1ccc(-c2cc(=O)n3cc(C4=CCN(C)CC4)cc(C)c3n2)cc1OC` [Compound 251, 2-(3,4-dimethoxyphenyl)-9-methyl-7-(1-methyl-1,2,3,6-tetrahydropyridin-4-yl)-4H-pyrido[1,2-a]pyrimidin-4-one], the melting point was 187 to 196 °C. Besides, in data set [1], the EC (1.5-fold increase) is less than 0.1 µM. For the same molecule, in data set [2], the “EC1.5x for Smn protein expression” value is recorded as “**** (an EC1.5x≤0.3 μM is indicated by four stars (****))” and the “maximum fold (Fold) increase” value is listed as “***** (a fold increase >1.65 is indicated by five stars (*****))”.

`O=c1cc(-c2ccc3[nH]ccc3c2)nc2ccc(N3CCNCC3)cn12` [Cpd 98, 2-(1H-indol-5-yl)-7-(piperazin-1-yl)-4H-pyrido[1,2-a]pyrimidin-4-one]: the melting point lay in the range of 266 to 272 °C. Further, in data set [1], the EC (1.5-fold increase) lay within 1 to 3 µM. The “maximum fold (Fold) increase” value in data set [2] is “*** (a fold increase between >1.35 and ≤1.5 is indicated by three stars (***))”.

The molecule `Cc1cn2nc(-c3cc(=O)n4cc(C5=CCNCC5)cc(C)c4n3)cc2c(C)n1` [Compound 480, 2-(4,6-dimethylpyrazolo[1,5-a]pyrazin-2-yl)-9-methyl-7-(1,2,3,6-tetrahydropyridin-4-yl)-4H-pyrido[1,2-a]pyrimidin-4-one] yielded a melting point greater than 300 °C. Also, the EC (1.5-fold increase) in data set [1] is less than 0.1 µM. In addition, in data set [2], the “EC1.5x for Smn protein expression” value is on record as “**** (an EC1.5x≤0.3 μM is indicated by four stars (****))” and the “maximum fold (Fold) increase” value was “***** (a fold increase >1.65 is indicated by five stars (*****))”.

The molecule `COc1ccc(-c2cc(=O)n3cc(C4=CCNCC4)ccc3c2)cc1OC` [Cpd 245, 2-(3,4-dimethoxyphenyl)-7-(1,2,3,6-tetrahydropyridin-4-yl)-4H-quinolizin-4-one] registered a melting point of 174 to 176 °C. Also, the EC (1.5-fold increase) in data set [1] was in the range of 0.3 to 1 µM. For the same molecule, in data set [2], the “maximum fold (Fold) increase” value was “** (a fold increase between >1.2 and ≤1.35 is indicated by two stars (**))”.

The molecule `C[C@H]1CN(c2ccc3nc(-c4cccc(N(C)C)c4)cc(=O)n3c2)CCN1` [Compound 58, 2-[3-(dimethylamino)phenyl]-7-[(3S)-3-methylpiperazin-1-yl]-4H-pyrido[1,2-a]pyrimidin-4-one] registered a melting point of 144 to 146 °C. The EC (1.5-fold increase) in data set [1] was in the range of 3 to 30 µM. Moreover, the “maximum fold (Fold) increase” value in data set [2] is listed as “* (A maximum fold increase of ≤1.2 is indicated by one star (*))”.

As to `Cc1cc(C2CCN(CCO)CC2)cn2c(=O)cc(-c3ccc4nn(C)cc4c3)nc12` [Compound 711, 7-[1-(2-hydroxyethyl)piperidin-4-yl]-9-methyl-2-(2-methyl-2H-indazol-5-yl)-4H-pyrido[1,2-a]pyrimidin-4-one], the melting point lay in the range of 216 to 222 °C. Further, the EC (1.5-fold increase) in data set [1] is less than 0.1 µM. For the same molecule, in data set [2], the “EC1.5x for Smn protein expression” value is listed as “**** (an EC1.5x≤0.3 μM is indicated by four stars (****))” and the “maximum fold (Fold) increase” value is “***** (a fold increase >1.65 is indicated by five stars (*****))”.

For `CCN1CCN(c2ccc3nc(-c4cc(F)c5nc(C)oc5c4)cc(=O)n3c2)CC1` [Compound 309, 7-(4-ethylpiperazin-1-yl)-2-(4-fluoro-2-methyl-1,3-benzoxazol-6-yl)-4H-pyrido[1,2-a]pyrimidin-4-one], the melting point was in the range of 212 to 214 °C. In addition, the EC (1.5-fold increase) in data set [1] is less than 0.1 µM. In addition, in data set [2], the “EC1.5x for Smn protein expression” value was “**** (an EC1.5x≤0.3 μM is indicated by four stars (****))”; the “maximum fold (Fold) increase” value was “**** (a fold increase between >1.5 and ≤1.65 is indicated by four stars (****))”.

For `O=c1cc(-c2ccc(O)c(F)c2)nc2ccc(N3CCNCC3)cn12` [Compound 152, 2-(3-fluoro-4-hydroxyphenyl)-7-(piperazin-1-yl)-4H-pyrido[1,2-a]pyrimidin-4-one], the melting point lay within 259 to 266 °C. Also, the EC (1.5-fold increase) in data set [1] fell in the range of 0.1 to 0.3 µM. Moreover, in data set [2], the “EC1.5x for Smn protein expression” value is reported as “**** (an EC1.5x≤0.3 μM is indicated by four stars (****))” and the “maximum fold (Fold) increase” value is given as “***** (a fold increase >1.65 is indicated by five stars (*****))”.

The molecule `CCCc1nc(C)cn2nc(-c3cc(=O)n4cc(N5C[C@H]6CNC[C@H]6C5)ccc4n3)cc12` [Compound 761, 7-[(3aR,6aS)-hexahydropyrrolo[3,4-c]pyrrol-2(1H)-yl]-2-(6-methyl-4-propylpyrazolo[1,5-a]pyrazin-2-yl)-4H-pyrido[1,2-a]pyrimidin-4-one] had a melting point of 212 to 214 °C. Moreover, the EC (1.5-fold increase) in data set [1] was less than 0.1 µM. Also, in data set [2], the “EC1.5x for Smn protein expression” value is listed as “**** (an EC1.5x≤0.3 μM is indicated by four stars (****))” and the “maximum fold (Fold) increase” value is recorded as “***** (a fold increase >1.65 is indicated by five stars (*****))”.

For the molecule `CCN(CC)C1CCN(c2ccc3nc(-c4ccc5nc(C)cn5c4)cc(=O)n3c2)CC1` [Compound 445, 7-[4-(diethylamino)piperidin-1-yl]-2-(2-methylimidazo[1,2-a]pyridin-6-yl)-4H-pyrido[1,2-a]pyrimidin-4-one], the melting point was 208 to 210 °C. In addition, in data set [1], the EC (1.5-fold increase) is less than 0.1 µM. Besides, in data set [2], the “EC1.5x for Smn protein expression” value was “*** (an EC1.5× between >0.3 μM and ≤1 μM is indicated by three stars (***))”; the “maximum fold (Fold) increase” value is “*** (a fold increase between >1.35 and ≤1.5 is indicated by three stars (***))”.

Consider `CCc1nc(C)cn2nc(-c3cc(=O)n4cc(C5CCN(CC)CC5)ccc4n3)cc12` [Compound 658, 2-(4-ethyl-6-methylpyrazolo[1,5-a]pyrazin-2-yl)-7-(1-ethylpiperidin-4-yl)-4H-pyrido[1,2-a]pyrimidin-4-one], for which the melting point fell in the range of 194 to 196 °C. In addition, the EC (1.5-fold increase) in data set [1] was less than 0.1 µM. For the same molecule, in data set [2], the “EC1.5x for Smn protein expression” value is “**** (an EC1.5x≤0.3 μM is indicated by four stars (****))” and the “maximum fold (Fold) increase” value is reported as “***** (a fold increase >1.65 is indicated by five stars (*****))”.

For `C[C@@H]1CN(c2ccc3nc(-c4cnc5c(ccn5C)c4)cc(=O)n3c2)C[C@H](C)N1` [Compound 130, 7-[(3R,5S)-3,5-dimethylpiperazin-1-yl]-2-(1-methyl-1H-pyrrolo[2,3-b]pyridin-5-yl)-4H-pyrido[1,2-a]pyrimidin-4-one], the melting point is 265 to 268 °C. Further, in data set [1], the EC (1.5-fold increase) was in the range of 1 to 3 µM. Further, in data set [2], the “EC1.5x for Smn protein expression” value was “* (An EC1.5× for Smn protein expression between >3 μM and ≤10 μM is indicated by one star (*))”; the “maximum fold (Fold) increase” value was “*** (a fold increase between >1.35 and ≤1.5 is indicated by three stars (***))”.
